Test results from ChEMBL document CHEMBL1132039, “Isotope edited NMR studies of glycosidases: design and synthesis of a novel glycosidase inhibitor” (Bioorg Med Chem Lett, 1999).

Legend:
[1] = Inhibitory potency against glucosidase was determined.; parameters: species or system Saccharomyces cerevisiae
[2] = target: Lysosomal alpha-glucosidase (Homo sapiens, UniProt P10253); assay: Inhibitory potency for alpha-glucosidase was determined at concentration up to 3.0 mM; No inhibition; parameters: species or system Saccharomyces cerevisiae

Row | Ki [1] [µM] | Ki [2] | Compound
1 | 23 | – | NCC(=O)N1C[C@H](O)[C@@H](O)[C@H](O)[C@H]1CO
2 | – | Not Active | OC[C@@H]1[C@@H](O)[C@H](O)[C@@H](O)CN1Cc1ccccc1
